Assay results: US8829167B2, “Foliamangiferosides, preparation method and use thereof” (Tianjin University of Traditional Chinese Medicine, priority 2009, dated 2014)

Target: T1, α-glucosidase derived from rat intestines (Rattus norvegicus, UniProt P23739)
T1 construct: The brush border membrane is scraped; from tissue; host or cells: Wistar male rat jejunum, brush border membrane (crude preparation)
Assay: α-glucosidase inhibiting activity (sucrose hydrolysis by rat intestinal brush border crude enzyme, glucose assay kit)
Format: biochemical
Conditions: for inhibition of the conversion of sucrose into glucose under the catalysis of α-glucosidase in intestines (in words): in vitro; for Inhibition ratio: sucrose substrate, 37° C., 30 min
Protocol: The research process of α-glucosidase inhibiting activity: A Wistar male rat (body weight: about 200 g) is sacrificed by decapitation. The jejunum is taken out. The brush border membrane is scraped and then mixed into 0.1 M maleic acid buffer solution (pH 6.0). The mixture is used as α-glucosidase crude enzyme. 50 uL of sample solution dissolved in 2.5% DMSO is added into 100 uL of […] sucrosebase solution, into which 50 uL of the α-glucosidase solution derived from rat intestines is added. The mixture is reacted for 30 minutes at 37° C. before adding 800 uL of water and placing into boiling water bath for 2 minutes to be inactivated. The amount of the glucose produced is assayed with glucose assay kits.
Preparation of Sample Solution Group
0.1 M of maleic acid aqueous solution is mixed with 0.1 M of sodium maleate aqueous solution. The mixture is adjusted to pH 6.0 and is used as 0.1 M of maleic acid buffer solution. A sample is dissolved into DMSO solution and diluted 10 times with 0.1 M of maleic acid buffer solution. A sample solution is obtained and ready to use.
Sample group: The group in which a sample is added according to the experimental procedure described above (the samples are foliamangiferoside A (obtained in example 1) and foliamangiferoside B (obtained in example 2)); Control group: The group in which 2.5% DMSO solution is added according to the experimental procedure described above; Blank group: The type and amount of the agents are the same with those in sample group except that 800 uL of water is added immediately after 50 uL of the α-glucosidase solution derived from rat intestines is added, then the mixture is placed into a boiling water bath for 2 minutes to conduct inactivation. Furthermore, the similar experiments are conducted with ethanolic extracts of mango leaves (the product obtained in step 1 of example 1).
The following equation is used to calculate the inhibition ratio (%): inhibition ratio (%)=(A−B)/(A−C)*100
wherein, A is the absorbance of control group, B is the absorbance of sample group and C is the absorbance of blank group.

T1 sequence (P23739 whole entry): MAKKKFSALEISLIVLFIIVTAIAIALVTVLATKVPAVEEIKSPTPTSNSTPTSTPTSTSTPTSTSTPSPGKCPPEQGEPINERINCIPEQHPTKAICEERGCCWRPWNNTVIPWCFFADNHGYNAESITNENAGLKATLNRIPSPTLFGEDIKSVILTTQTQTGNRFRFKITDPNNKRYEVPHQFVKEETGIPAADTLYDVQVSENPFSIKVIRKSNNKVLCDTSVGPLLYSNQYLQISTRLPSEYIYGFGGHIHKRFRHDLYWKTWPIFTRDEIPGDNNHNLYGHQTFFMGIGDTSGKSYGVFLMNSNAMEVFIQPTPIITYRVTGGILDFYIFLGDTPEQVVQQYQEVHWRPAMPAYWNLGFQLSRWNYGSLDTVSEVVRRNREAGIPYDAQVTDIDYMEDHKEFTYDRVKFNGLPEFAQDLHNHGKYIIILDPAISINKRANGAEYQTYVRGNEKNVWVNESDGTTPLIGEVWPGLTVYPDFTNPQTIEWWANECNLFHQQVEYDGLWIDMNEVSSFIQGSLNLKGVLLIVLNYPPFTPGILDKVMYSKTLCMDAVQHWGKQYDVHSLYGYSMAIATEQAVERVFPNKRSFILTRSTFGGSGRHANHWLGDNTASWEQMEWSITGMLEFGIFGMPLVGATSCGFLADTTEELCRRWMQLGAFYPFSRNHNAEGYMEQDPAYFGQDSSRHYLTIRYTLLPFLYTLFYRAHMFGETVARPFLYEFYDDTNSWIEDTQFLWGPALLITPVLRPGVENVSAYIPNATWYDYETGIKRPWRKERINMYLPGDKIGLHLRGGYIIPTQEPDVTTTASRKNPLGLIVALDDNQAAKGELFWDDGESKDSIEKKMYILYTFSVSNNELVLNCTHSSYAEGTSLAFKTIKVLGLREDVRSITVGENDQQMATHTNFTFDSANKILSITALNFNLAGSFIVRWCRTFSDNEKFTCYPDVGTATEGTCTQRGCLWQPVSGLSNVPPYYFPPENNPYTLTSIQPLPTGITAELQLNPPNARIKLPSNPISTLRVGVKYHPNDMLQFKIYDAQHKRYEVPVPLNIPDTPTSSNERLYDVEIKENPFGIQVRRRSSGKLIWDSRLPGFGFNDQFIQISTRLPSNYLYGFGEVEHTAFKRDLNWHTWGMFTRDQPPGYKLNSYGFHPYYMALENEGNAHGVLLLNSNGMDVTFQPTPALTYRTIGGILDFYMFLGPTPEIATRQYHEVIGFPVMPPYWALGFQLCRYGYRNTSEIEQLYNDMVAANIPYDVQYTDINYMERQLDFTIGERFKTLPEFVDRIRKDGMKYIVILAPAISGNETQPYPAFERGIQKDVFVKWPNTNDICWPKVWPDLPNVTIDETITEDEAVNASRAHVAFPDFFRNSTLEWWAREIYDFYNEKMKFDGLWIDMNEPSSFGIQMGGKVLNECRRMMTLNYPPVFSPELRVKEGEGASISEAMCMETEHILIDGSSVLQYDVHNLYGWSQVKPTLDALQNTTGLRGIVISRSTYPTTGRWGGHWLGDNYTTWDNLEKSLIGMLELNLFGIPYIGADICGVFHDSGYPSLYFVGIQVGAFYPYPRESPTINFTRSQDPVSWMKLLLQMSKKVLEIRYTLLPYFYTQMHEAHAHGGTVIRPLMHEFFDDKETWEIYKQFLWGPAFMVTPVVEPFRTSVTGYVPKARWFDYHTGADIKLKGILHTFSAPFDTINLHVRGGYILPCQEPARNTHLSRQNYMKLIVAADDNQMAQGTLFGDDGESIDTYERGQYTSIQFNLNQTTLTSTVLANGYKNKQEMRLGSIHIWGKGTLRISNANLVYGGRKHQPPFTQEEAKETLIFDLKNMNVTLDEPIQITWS

Row | Compound | inhibition of the conversion of sucrose into glucose under the catalysis of α-glucosidase in intestines (in words) | Sample group Conc. of glucose hydrolyzed (sample 50 uM) [mg/dL] | Inhibition ratio (sample 50 uM) [%] | Sample group Conc. of glucose hydrolyzed (sample 100 uM) [mg/dL] | Inhibition ratio (sample 100 uM) [%] | Sample group Conc. of glucose hydrolyzed (sample 200 uM) [mg/dL] | Inhibition ratio (sample 200 uM) [%] | Sample group Conc. of glucose hydrolyzed (sample 400 uM) [mg/dL] | Inhibition ratio (sample 400 uM) [%] | Inhibition ratio (sample 400 uM, listed as foliamangiferoside B) [%] | Inhibition ratio (sample 400 uM, listed as foliamangiferoside A) [%]
1 | COc1cc(C(=O)c2c(O)cc(OC)c([C@@H]3OC(CO)[C@@H](O)C(O)C3O)c2O)ccc1O (some centres unmarked) [Foliamangiferoside B, foliamangiferoside B] | can effectively inhibit | 5.23 | 19.6 | 4.64 | 23.9 | 4.12 | 29.6 | 3.71 | 45.6 | 45.6 | 
2 | COc1cc(O)c(C(=O)c2ccc(O)cc2)c(O)c1[C@@H]1O[C@H](CO)[C@@H](O)[C@H](O)[C@H]1O [Foliamangiferoside A, foliamangiferoside A] | can effectively inhibit | 5.23 | 15.8 | 4.64 | 20.2 | 4.12 | 26.2 | 3.09 | 58.2 |  | 58.2
